# Measurements: ChEMBL document CHEMBL2417538, “Antithrombotic effects of LB30870, a potent, orally active, selective and direct thrombin inhibitor, and pharmacokinetics of its prodrug” (Bioorg Med Chem Lett, 2013)
# The source made the active and inactive calls. No cut-off for these calls is given here.
# Assays:
# Rattus norvegicus [1] = assay: Anticoagulant activity in Sprague-Dawley rat deep vein thrombosis model assessed as reduction in wet clot weight at 50 ug/kg, iv administered as infusion; format: functional
# [2] = Aqueous solubility of the compound at pH 6.62; format: physicochemical; conditions: aqueous solution
# [3] = Aqueous solubility of the compound at pH 7.35; format: physicochemical; conditions: aqueous solution
# [4] = Aqueous solubility of the compound at pH 4.7; format: physicochemical; conditions: aqueous solution
# [5] = Distribution coefficient, log D of the compound at pH 7 by potentiometric titration; format: physicochemical; conditions: octanol/water
# [6] = Dissociation constant, pKa of the compound by potentiometric titration; format: physicochemical
# [7] = Oral bioavailability in Beagle dog at 10 mg/kg; format: ADME, organism-based, Canis lupus familiaris; conditions: in vivo
# [8] = Cmax in Beagle dog at 10 mg/kg, po; format: ADME, organism-based, Canis lupus familiaris; parameters: dose 10 mg/kg, route oral; conditions: in vivo
# [9] = Oral bioavailability in Sprague-Dawley rat at 30 mg/kg; format: ADME, organism-based; conditions: in vivo
# [10] = AUC in Sprague-Dawley rat at 30 mg/kg, po; format: ADME, organism-based; parameters: dose 30 mg/kg, route oral; conditions: plasma
# [11] = Cmax in Sprague-Dawley rat at 30 mg/kg, po; format: ADME, organism-based; parameters: dose 30 mg/kg, route oral; conditions: in vivo
# [12] = Oral bioavailability in monkey; format: ADME, organism-based, Macaca mulatta; conditions: rhesus monkey, in vivo
# [13] = Plasma protein binding in human at 30 ug/ml by ultra-filtration method; format: ADME, cell-free; conditions: read-out: PPB (converted)
# [14] = Plasma protein binding in dog at 30 ug/ml by ultra-filtration method; format: ADME, cell-free, Canis lupus familiaris; conditions: read-out: PPB (converted)
# [15] = Plasma protein binding in human at 5 ug/ml by ultra-filtration method; format: ADME, cell-free; conditions: read-out: PPB (converted)
# [16] = Plasma protein binding in rat at 30 ug/ml by ultra-filtration method; format: ADME, cell-free; conditions: read-out: PPB (converted)
# [17] = Plasma protein binding in rat at 5 ug/ml by ultra-filtration method; format: ADME, cell-free; conditions: read-out: PPB (converted)
# [18] = Plasma protein binding in dog at 5 ug/ml by ultra-filtration method; format: ADME, cell-free, Canis lupus familiaris; conditions: read-out: PPB (converted)
# [19] = Plasma protein binding in human at 1 ug/ml by ultra-filtration method; format: ADME, cell-free; conditions: read-out: PPB (converted)
# [20] = Plasma protein binding in rat at 1 ug/ml by ultra-filtration method; format: ADME, cell-free; conditions: read-out: PPB (converted)
# [21] = Plasma protein binding in dog at 1 ug/ml by ultra-filtration method; format: ADME, cell-free, Canis lupus familiaris; conditions: read-out: PPB (converted)
# Rattus norvegicus [22] = assay: Anticoagulant activity in Sprague-Dawley rat deep vein thrombosis model assessed as reduction in wet clot weight administered as iv bolus followed by infusion relative to control; format: functional, organism-based
# Rattus norvegicus [23] = assay: Anticoagulant activity in Sprague-Dawley rat deep vein thrombosis model assessed as prothrombin time change at 0.25 mg/kg, iv administered as bolus and 10 ug/kg/min administered as infusion relative to control; format: functional
# Rattus norvegicus [24] = assay: Anticoagulant activity in Sprague-Dawley rat deep vein thrombosis model assessed as prothrombin time change at 0.2 mg/kg, iv administered as bolus and 8 ug/kg/min administered as infusion relative to control; format: functional
# Rattus norvegicus [25] = assay: Anticoagulant activity in Sprague-Dawley rat deep vein thrombosis model assessed as prothrombin time change at 0.1 mg/kg, iv administered as bolus and 4 ug/kg/min administered as infusion relative to control; format: functional
# Rattus norvegicus [26] = assay: Anticoagulant activity in Sprague-Dawley rat deep vein thrombosis model assessed as prothrombin time change at 0.05 mg/kg, iv administered as bolus and 2 ug/kg/min administered as infusion relative to control; format: functional
# Rattus norvegicus [27] = assay: Anticoagulant activity in Sprague-Dawley rat deep vein thrombosis model assessed as prothrombin time change at 0.025 mg/kg, iv administered as bolus and 1 ug/kg/min administered as infusion relative to control; format: functional
# Rattus norvegicus [28] = assay: Anticoagulant activity in Sprague-Dawley rat deep vein thrombosis model assessed as activated partial thromboplastin time change at 0.1 mg/kg, iv administered as bolus and 4 ug/kg/min administered as infusion relative to control; format: functional
# Rattus norvegicus [29] = assay: Anticoagulant activity in Sprague-Dawley rat deep vein thrombosis model assessed as activated partial thromboplastin time change at 0.05 mg/kg, iv administered as bolus and 2 ug/kg/min administered as infusion relative to control; format: functional
# Rattus norvegicus [30] = assay: Anticoagulant activity in Sprague-Dawley rat deep vein thrombosis model assessed as activated partial thromboplastin time change at 0.2 mg/kg, iv administered as bolus and 8 ug/kg/min administered as infusion relative to control; format: functional
# Rattus norvegicus [31] = assay: Anticoagulant activity in Sprague-Dawley rat deep vein thrombosis model assessed as activated partial thromboplastin time change at 0.025 mg/kg, iv administered as bolus and 1 ug/kg/min administered as infusion relative to control; format: functional
# Rattus norvegicus [32] = assay: Anticoagulant activity in Sprague-Dawley rat deep vein thrombosis model assessed as activated partial thromboplastin time change at 0.25 mg/kg, iv administered as bolus and 10 ug/kg/min administered as infusion relative to control; format: functional
# Rattus norvegicus [33] = assay: Anticoagulant activity in Sprague-Dawley rat deep vein thrombosis model assessed as wet clot weight at 0.2 mg/kg, iv administered as bolus and 8 ug/kg/min administered as infusion (reference value: 83 +/- 5.1 mg); format: functional
# Rattus norvegicus [34] = assay: Anticoagulant activity in Sprague-Dawley rat deep vein thrombosis model assessed as wet clot weight at 0.1 mg/kg, iv administered as bolus and 4 ug/kg/min administered as infusion (reference value: 83 +/- 5.1 mg); format: functional
# Rattus norvegicus [35] = assay: Anticoagulant activity in Sprague-Dawley rat deep vein thrombosis model assessed as wet clot weight at 0.05 mg/kg, iv administered as bolus and 2 ug/kg/min administered as infusion (reference value: 83 +/- 5.1 mg); format: functional
# Plasma [36] = assay: Anticoagulant activity in rabbit plasma assessed as concentration required to double thrombin time; format: functional, Oryctolagus cuniculus
# Plasma [37] = assay: Anticoagulant activity in rat plasma assessed as concentration required to double thrombin time; format: functional
# Plasma [38] = assay: Anticoagulant activity in monkey plasma assessed as concentration required to double thrombin time; format: functional, Macaca mulatta
# Plasma [39] = assay: Anticoagulant activity in rat plasma assessed as concentration required to double prothrombin time; format: functional
# Plasma [40] = assay: Anticoagulant activity in human plasma assessed as concentration required to double thrombin time; format: functional
# Plasma [41] = assay: Anticoagulant activity in monkey plasma assessed as concentration required to double prothrombin time; format: functional, Macaca mulatta
# Plasma [42] = assay: Anticoagulant activity in rabbit plasma assessed as concentration required to double prothrombin time; format: functional, Oryctolagus cuniculus
# Plasma [43] = assay: Anticoagulant activity in human plasma assessed as concentration required to double prothrombin time; format: functional
# Plasma [44] = assay: Anticoagulant activity in rabbit plasma assessed as concentration required to double activated partial thromboplastin time; format: functional, Oryctolagus cuniculus
# Plasma [45] = assay: Anticoagulant activity in rat plasma assessed as concentration required to double activated partial thromboplastin time; format: functional
# Plasma [46] = assay: Anticoagulant activity in monkey plasma assessed as concentration required to double activated partial thromboplastin time; format: functional, Macaca mulatta
# Plasma [47] = assay: Anticoagulant activity in human plasma assessed as concentration required to double activated partial thromboplastin time; format: functional
# Prothrombin [48] = target: T1, Prothrombin (Homo sapiens, UniProt P00734); assay: Inhibition of thrombin (unknown origin) assessed as fibrin clot formation
# Prothrombin [49] = target: T1, Prothrombin; assay: Inhibition of free thrombin (unknown origin) using S2238 as substrate
# Prothrombin [50] = target: T1, Prothrombin; assay: Inhibition of plasma clot-bound thrombin (unknown origin) using S2238 as substrate
# Prothrombin [51] = target: T1, Prothrombin; assay: Binding affinity to thrombin (unknown origin) by surface plasmon resonance analysis
# Homo sapiens [52] = species: Homo sapiens; assay: Selectivity ratio of Ki for human t-PA to Ki for human thrombin
# Homo sapiens [53] = species: Homo sapiens; assay: Selectivity ratio of Ki for human trypsin to Ki for human thrombin
# Homo sapiens [54] = species: Homo sapiens; assay: Selectivity ratio of Ki for human plasmin to Ki for human thrombin
# Homo sapiens [55] = species: Homo sapiens; assay: Selectivity ratio of Ki for human factor 10a to Ki for human thrombin
# Plasminogen = Plasminogen (Homo sapiens, UniProt P00747); assay: Inhibition of human plasmin
# [56] = target: Tissue-type plasminogen activator (Homo sapiens, UniProt P00750); assay: Inhibition of human t-PA
# Trypsin = Trypsin (Homo sapiens, UniProt P07477+P07478+P35030); assay: Inhibition of human trypsin; format: protein assay
# Coagulation factor X = Coagulation factor X (Homo sapiens, UniProt P00742); assay: Inhibition of human factor 10a
# Prothrombin [57] = target: T1, Prothrombin; assay: Inhibition of human thrombin
# [58] = AUC in Beagle dog at 10 mg/kg, po; format: ADME, organism-based, Canis lupus familiaris; parameters: dose 10 mg/kg, route oral; conditions: plasma
# Prothrombin [59] = target: T1, Prothrombin; assay: Competitive inhibition of human thrombin at 0.25 to 1 nM by Lineweaver-Burk plot analysis
# Coagulation factor X, sequence (P00742 41-179 limits assumed): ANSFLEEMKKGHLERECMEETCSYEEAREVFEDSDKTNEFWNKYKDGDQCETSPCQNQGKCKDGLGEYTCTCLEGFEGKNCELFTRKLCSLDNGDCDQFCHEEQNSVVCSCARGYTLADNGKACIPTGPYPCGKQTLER
# Coagulation factor X, sequence (P00742 235-488 limits assumed): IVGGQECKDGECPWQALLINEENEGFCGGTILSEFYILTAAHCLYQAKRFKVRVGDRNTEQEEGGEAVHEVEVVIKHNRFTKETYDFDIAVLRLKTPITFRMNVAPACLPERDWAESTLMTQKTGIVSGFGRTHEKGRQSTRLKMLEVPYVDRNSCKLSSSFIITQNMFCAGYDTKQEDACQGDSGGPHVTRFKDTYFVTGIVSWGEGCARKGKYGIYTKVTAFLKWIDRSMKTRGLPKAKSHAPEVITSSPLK
# Tissue-type plasminogen activator, sequence (P00750 whole entry): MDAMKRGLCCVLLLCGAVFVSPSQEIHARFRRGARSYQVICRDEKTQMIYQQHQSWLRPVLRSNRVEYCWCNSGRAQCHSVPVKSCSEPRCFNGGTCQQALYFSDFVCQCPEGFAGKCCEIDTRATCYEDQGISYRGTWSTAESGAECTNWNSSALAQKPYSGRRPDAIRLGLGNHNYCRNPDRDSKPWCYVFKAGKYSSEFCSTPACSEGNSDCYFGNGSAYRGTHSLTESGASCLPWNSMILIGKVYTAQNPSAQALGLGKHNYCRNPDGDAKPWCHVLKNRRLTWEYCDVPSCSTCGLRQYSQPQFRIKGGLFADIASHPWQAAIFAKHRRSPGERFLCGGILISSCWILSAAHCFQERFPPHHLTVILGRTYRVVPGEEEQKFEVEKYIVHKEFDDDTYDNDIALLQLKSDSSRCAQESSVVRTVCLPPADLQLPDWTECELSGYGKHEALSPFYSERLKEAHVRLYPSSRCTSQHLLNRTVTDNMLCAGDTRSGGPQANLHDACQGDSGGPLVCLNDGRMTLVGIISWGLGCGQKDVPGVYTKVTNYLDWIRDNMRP
# Plasminogen, sequence (P00747 97-580 limits assumed): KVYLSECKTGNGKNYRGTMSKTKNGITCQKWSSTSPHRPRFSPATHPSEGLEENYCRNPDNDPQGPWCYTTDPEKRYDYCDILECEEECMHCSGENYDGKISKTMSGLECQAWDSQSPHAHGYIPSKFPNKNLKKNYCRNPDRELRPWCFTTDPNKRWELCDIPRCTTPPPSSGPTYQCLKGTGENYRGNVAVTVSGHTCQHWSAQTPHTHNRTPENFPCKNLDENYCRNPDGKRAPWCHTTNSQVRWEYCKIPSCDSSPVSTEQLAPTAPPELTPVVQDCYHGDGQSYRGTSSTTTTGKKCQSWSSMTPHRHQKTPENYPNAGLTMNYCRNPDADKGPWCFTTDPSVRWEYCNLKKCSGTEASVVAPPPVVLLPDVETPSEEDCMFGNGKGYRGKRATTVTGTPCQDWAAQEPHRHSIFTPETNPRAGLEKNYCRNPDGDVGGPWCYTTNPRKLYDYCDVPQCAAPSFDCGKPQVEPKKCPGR
# Plasminogen, sequence (P00747 581-810 limits assumed): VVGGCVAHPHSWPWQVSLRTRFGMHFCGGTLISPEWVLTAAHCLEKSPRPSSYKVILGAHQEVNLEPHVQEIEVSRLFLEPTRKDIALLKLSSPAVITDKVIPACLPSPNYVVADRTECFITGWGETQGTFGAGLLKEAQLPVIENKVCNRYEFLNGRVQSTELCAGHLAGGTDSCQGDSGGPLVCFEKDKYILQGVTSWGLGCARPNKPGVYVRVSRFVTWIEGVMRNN
compound,measurement,setting,value
N=C(N)c1ccc(CNC(=O)[C@@H]2CCCN2C(=O)[C@@H](NCC(=O)O)C(c2ccccc2)c2ccccc2)s1,ED50,Rattus norvegicus [1],2 µg/kg/min
same,solubility,[2],570 µg/mL
same,solubility,[3],460 µg/mL
same,solubility,[4],15 mg/mL
same,logD,[5],-0.088
same,pKa,[6],1.91
same,bioavailability,[7],43%
same,Cmax,[8],6900 ng/mL
same,bioavailability,[9],30%
same,AUC,[10],9270 ng·h/mL
same,Cmax,[11],2900 ng/mL
same,bioavailability,[12],15%
same,fraction unbound at 30 ug/ml,[13],0.508
same,fraction unbound at 30 ug/ml,[14],0.216
same,fraction unbound at 5 ug/ml,[15],0.482
same,fraction unbound at 30 ug/ml,[16],0.182
same,fraction unbound at 5 ug/ml,[17],0.147
same,fraction unbound at 5 ug/ml,[18],0.177
same,fraction unbound at 1 ug/ml,[19],0.485
same,fraction unbound at 1 ug/ml,[20],0.124
same,fraction unbound at 1 ug/ml,[21],0.174
same,Activity,Rattus norvegicus [22],Dose-dependent effect
same,fold change (FC),Rattus norvegicus [23],17.2
same,fold change (FC),Rattus norvegicus [24],9.04
same,fold change (FC),Rattus norvegicus [25],2.07
same,fold change (FC),Rattus norvegicus [26],1.15
same,fold change (FC),Rattus norvegicus [27],1.03
same,fold change (FC),Rattus norvegicus [28],3.58
same,fold change (FC),Rattus norvegicus [29],2.77
same,fold change (FC),Rattus norvegicus [30],5.58
same,fold change (FC),Rattus norvegicus [31],1.68
same,fold change (FC),Rattus norvegicus [32],4.37
same,Activity,Rattus norvegicus [33],0 mg
same,Activity,Rattus norvegicus [34],23 mg
same,Activity,Rattus norvegicus [35],46 mg
same,2TT,Plasma [36],0.019 µM
same,Activity,Plasma [36]; Oryctolagus cuniculus,Dose-dependent effect
same,2TT,Plasma [37],0.01 µM
same,Activity,Plasma [37],Dose-dependent effect
same,2TT,Plasma [38],>0.2 µM
same,Activity,Plasma [38]; Macaca mulatta,Dose-dependent effect
same,2PT,Plasma [39],1.12 µM
same,Activity,Plasma [39],Dose-dependent effect
same,2TT,Plasma [40],0.016 µM
same,Activity,Plasma [40],Dose-dependent effect
same,2PT,Plasma [41],0.3 µM
same,Activity,Plasma [41]; Macaca mulatta,Dose-dependent effect
same,2PT,Plasma [42],2.04 µM
same,Activity,Plasma [42]; Oryctolagus cuniculus,Dose-dependent effect
same,2PT,Plasma [43],0.66 µM
same,Activity,Plasma [43],Dose-dependent effect
same,2aPTT,Plasma [44],1.1 µM
same,Activity,Plasma [44]; Oryctolagus cuniculus,Dose-dependent effect
same,2aPTT,Plasma [45],0.97 µM
same,Activity,Plasma [45],Dose-dependent effect
same,2aPTT,Plasma [46],0.51 µM
same,Activity,Plasma [46]; Macaca mulatta,Dose-dependent effect
same,2aPTT,Plasma [47],0.23 µM
same,Activity,Plasma [47],Dose-dependent effect
same,IC50,Prothrombin [48],16 nM
same,IC50,Prothrombin [49],2.1 nM
same,IC50,Prothrombin [50],5 nM
same,Kd,Prothrombin [51],0.18 nM
same,Ratio Ki,Homo sapiens [52],5210
same,Ratio Ki,Homo sapiens [53],13.7
same,Ratio Ki,Homo sapiens [54],> 10000
same,Ratio Ki,Homo sapiens [55],> 10000
same,Ki,Plasminogen,7.43 µM
same,Ki,[56],113 nM
same,Ki,Trypsin,0.3 nM
same,Ki,Coagulation factor X,2250 nM
same,Ki,Prothrombin [57],0.02 nM
same,AUC,[58],12200 ng·h/mL
same,inhibition,Prothrombin [59],Active
